Experimental data as given in US20110009381A1, “SOLUBILIZED THIAZOLOPYRIDINES” (Sirtis Pharmaceuticals, Inc., priority 2007, published 2011).

Biological target: T1, SIRT1 (Homo sapiens, UniProt Q96EB6)
T1 sequence (Q96EB6 1-747): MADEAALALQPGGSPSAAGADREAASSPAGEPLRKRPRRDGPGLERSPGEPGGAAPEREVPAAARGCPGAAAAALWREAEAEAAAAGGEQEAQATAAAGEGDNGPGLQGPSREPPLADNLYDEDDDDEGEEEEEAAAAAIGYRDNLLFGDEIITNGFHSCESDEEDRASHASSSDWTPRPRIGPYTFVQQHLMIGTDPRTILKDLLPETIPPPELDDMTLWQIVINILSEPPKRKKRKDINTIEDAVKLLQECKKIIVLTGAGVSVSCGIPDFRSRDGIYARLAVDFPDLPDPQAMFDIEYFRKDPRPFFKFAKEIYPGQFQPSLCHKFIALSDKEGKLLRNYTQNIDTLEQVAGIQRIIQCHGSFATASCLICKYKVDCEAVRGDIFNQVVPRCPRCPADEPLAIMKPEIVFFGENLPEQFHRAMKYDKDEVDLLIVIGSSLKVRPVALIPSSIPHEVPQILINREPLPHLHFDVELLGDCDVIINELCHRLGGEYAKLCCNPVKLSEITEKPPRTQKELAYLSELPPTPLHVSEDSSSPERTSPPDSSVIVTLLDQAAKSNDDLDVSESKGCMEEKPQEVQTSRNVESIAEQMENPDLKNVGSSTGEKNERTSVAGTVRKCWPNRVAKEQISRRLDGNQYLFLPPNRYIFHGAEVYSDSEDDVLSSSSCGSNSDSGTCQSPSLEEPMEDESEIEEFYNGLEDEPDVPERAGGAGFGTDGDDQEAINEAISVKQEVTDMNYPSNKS
Assay: Mass spectrometry based assay to identify modulators of SIRT1 activity (deacetylation of p53-based acetylated peptide substrate)
Type: biochemical
Settings: 10 nM SIRT1, 0.5 μM peptide substrate, 120 μM βNAD+, 25 minutes at 25° C.; for EC1.5: SIRT1 activation
In short: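 Activation measured on His-tagged SIRT1 (10 nM, E. coli-expressed) deacetylating a 0.5 μM p53-derived acetyl-peptide with 120 μM βNAD^+ for 25 min at 25 °C, pH 8 Tris-acetate. After formic acid stop, mass spectrometry quantified acetylated versus deacetylated peptide, referenced to DMSO and nicotinamide controls. Reported as EC1.5 and maximum fold activation.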

FOLD ACT. (percent maximum fold activation) | EC1.5 | Compound
A (Fold activation≧300%) | A′ (EC1.5<250 nM) | CS(=O)(=O)N1CCC(Nc2cc(C(=O)Nc3ccccc3-c3nc4cccnc4s3)nc(-c3ccccc3)n2)CC1 [Compound 135]
B (Fold Activation≧150% and <300%) | A (EC1.5≧250 nM and ≦1 uM) | O=C(Nc1ccccc1-c1nc2cccnc2s1)c1cc(NC2CCN(C(=O)c3ccccc3)CC2)nc(-c2ccccc2)n1 [Compound 136]
A (Fold activation≧300%) | A′ (EC1.5<250 nM) | COCCN(C)c1cc(C(=O)Nc2ccccc2-c2nc3cccnc3s2)nc(-c2ccccc2)c1 [Compound 137]
A (Fold activation≧300%) | A′ (EC1.5<250 nM) | Cc1cccc(-c2nc(C(=O)Nc3ccccc3-c3nc4cccnc4s3)cc(N3CCN(C(C)C)CC3)n2)c1 [Compound 138]
A (Fold activation≧300%) | A′ (EC1.5<250 nM) | Cc1cccc(-c2nc(C(=O)Nc3ccccc3-c3nc4cccnc4s3)cc(N3CCNCC3)n2)c1 [Compound 139]
A (Fold activation≧300%) | A′ (EC1.5<250 nM) | CC(C)CN1CCC(Nc2cc(C(=O)Nc3ccccc3-c3nc4cccnc4s3)nc(-c3ccccc3)n2)CC1 [Compound 140]
A (Fold activation≧300%) | A′ (EC1.5<250 nM) | O=C(Nc1ccccc1-c1nc2cccnc2s1)c1cc(NCCCn2ccnc2)cc(-c2ccccc2)n1 [Compound 141]
A (Fold activation≧300%) | A (EC1.5≧250 nM and ≦1 uM) | Cc1cccc(-c2nc(OC[C@@H](O)CO)cc(C(=O)Nc3ccccc3-c3nc4cccnc4s3)n2)c1 [Compound 142]
A (Fold activation≧300%) | A′ (EC1.5<250 nM) | COCCN(CCOC)c1cc(C(=O)Nc2ccccc2-c2nc3cccnc3s2)nc(-c2cccc(C)c2)n1 [Compound 143]
A (Fold activation≧300%) | A′ (EC1.5<250 nM) | O=C(Nc1ccccc1-c1nc2cccnc2s1)c1cc(N2CCN3CCC[C@H]3C2)cc(-c2ccccc2)n1 [Compound 144]
A (Fold activation≧300%) | A′ (EC1.5<250 nM) | CN(C)CCN(C)c1cc(C(=O)Nc2ccccc2-c2nc3cccnc3s2)nc(-c2ccccc2)n1 [Compound 145]
A (Fold activation≧300%) | A′ (EC1.5<250 nM) | CCN(CCN(C)C)c1cc(C(=O)Nc2ccccc2-c2nc3cccnc3s2)nc(-c2ccccc2)n1 [Compound 146]
A (Fold activation≧300%) | A′ (EC1.5<250 nM) | CNCCN(C)c1cc(C(=O)Nc2ccccc2-c2nc3cccnc3s2)nc(-c2ccccc2)n1 [Compound 147]
B (Fold Activation≧150% and <300%) | A (EC1.5≧250 nM and ≦1 uM) | Cc1cccc(-c2nc(C(=O)Nc3ccccc3-c3nc4cccnc4s3)cc(N3CCOCC3)n2)c1 [Compound 148]
B (Fold Activation≧150% and <300%) | A (EC1.5≧250 nM and ≦1 uM) | O=C1CN(c2cc(C(=O)Nc3ccccc3-c3nc4cccnc4s3)nc(-c3ccccc3)n2)CCN1 [Compound 149]
A (Fold activation≧300%) | A (EC1.5≧250 nM and ≦1 uM) | CCN1CCN(c2cc(C(=O)Nc3ccccc3-c3nc4cccnc4s3)nc(-c3ccccc3)n2)CC1=O [Compound 150]
B (Fold Activation≧150% and <300%) | A′ (EC1.5<250 nM) | CN1CCN(c2cc(C(=O)Nc3ccccc3-c3nc4cccnc4s3)nc(-c3ccccc3)n2)CC1=O [Compound 151]
A (Fold activation≧300%) | A′ (EC1.5<250 nM) | NCCOc1cc(C(=O)Nc2ccccc2-c2nc3cccnc3s2)nc(-c2ccccc2)n1 [Compound 152]
A (Fold activation≧300%) | A (EC1.5≧250 nM and ≦1 uM) | CN(C)CCCOc1cc(C(=O)Nc2ccccc2-c2nc3cccnc3s2)nc(-c2ccccc2)n1 [Compound 153]
